{"source": "patent US9073940B2", "about": "“Tricyclic pyrazol amine derivatives” (MERCK SERONO SA, priority 2009, dated 2015)", "key": {"[1]": {"test_system": "AKT phosphorylation (p-AKT Ser 473) in Ramos B-lymphocyte cell line", "assay": "Mechanistic on-target cell assay: flow cytometry of AKT phosphorylation after anti-human IGM stimulation", "type": "cell-based", "experimental": "Mechanistic-On Target Cell Assay\nThe reaction was stopped by fixing the cells with Paraformaldehyde 4% (final) for 10 minutes at room temperature. Cells were washed once with Phosphate Buffer Saline (PBS), permabilized in PBS-Triton X-100 0.2% for 15 minutes at room temperature washed twice with PBS and once with PBS-4% serum. […] Cells were washed twice in PBS and resuspended in PBS. The cell suspension was passed on a FC500 flow cytometer (Beckman Coulter), gating on the IGM positive cells and measuring the AKT phosphorylation."}, "[2]": {"test_system": "4 PI3K isoforms (Human recombinant GST-PI3K)", "assay": "PI3K scintillation proximity assay, best IC50 obtained with the four isoforms (alpha, beta, delta, gamma)", "type": "biochemical", "details": "best IC50 obtained with the four isoforms of PI3K; read-out: Best potency measured on the 4 PI3K isoforms"}, "[3]": {"test_system": "Class I PI3-kinases", "details": "each of the Class I PI3-kinases, cited from earlier work"}, "[4]": {"target": "CK2 protein kinase (Homo sapiens (Human), UniProt P68400)", "sequence (P68400 whole entry)": "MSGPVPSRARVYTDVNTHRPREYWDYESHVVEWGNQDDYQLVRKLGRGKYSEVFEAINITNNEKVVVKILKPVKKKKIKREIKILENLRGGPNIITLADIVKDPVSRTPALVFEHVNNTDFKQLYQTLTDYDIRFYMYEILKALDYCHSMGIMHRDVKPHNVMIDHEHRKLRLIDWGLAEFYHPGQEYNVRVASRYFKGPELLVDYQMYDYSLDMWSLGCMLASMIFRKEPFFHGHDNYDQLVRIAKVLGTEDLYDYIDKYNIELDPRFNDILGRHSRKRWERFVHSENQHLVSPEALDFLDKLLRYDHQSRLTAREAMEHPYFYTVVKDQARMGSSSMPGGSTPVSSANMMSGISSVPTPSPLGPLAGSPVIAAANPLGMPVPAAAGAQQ", "details": "cited from earlier work"}}, "note": "Read-outs that look alike come from different tables or passages of the source.", "data": [{"smiles": "CN(C)Cc1ccc(-n2nc(C(=O)N3CCOCC3)c3c2-c2ccccc2S(=O)(=O)C3)cc1", "note": "[Example 226, N,N-Dimethyl-1-{4-[3-(morpholin-4-ylcarbonyl)-5,5-dioxidothiochromeno[4,3-c]pyrazol-1(4H)-yl]phenyl}methanamine]", "values": [{"measurement": "IC50", "setting": "[1]", "value": 492, "unit": "nM"}, {"measurement": "IC50", "setting": "[2]", "value": 43, "unit": "nM"}]}, {"smiles": "O=c1cc(N2CCOCC2)oc2c(-c3ccccc3)cccc12", "note": "[LY294002]", "values": [{"measurement": "IC50", "setting": "[3]; read-out: IC50 against each of these PI3-kinases", "value": "15 to 20", "unit": "µM"}, {"measurement": "IC50", "setting": "[4]", "value": "5 to 10", "unit": "µM"}]}, {"smiles": "COC[C@H]1OC(=O)c2coc3c2[C@@]1(C)C1=C(C3=O)[C@@H]2CCC(=O)[C@@]2(C)C[C@H]1OC(C)=O", "note": "[Wortmannin]", "values": [{"measurement": "IC50", "setting": "[3]; read-out: IC50 against each of the various Class I PI3-kinases", "value": "0.001 to 0.01", "unit": "µM"}]}]}
